Source: US8431559B2, “Treatment of hot flashes” (priority 2008, dated 2013)
Read-outs that look alike come from different tables or passages of the source.

Experiments:
bone marrow = assay: in vivo bone marrow micronucleus test
pregnant rabbits = assay: Reproductive toxicity studies in pregnant rabbits; format: in vivo; details: intravenous doses up to 2.5 mg/kg/day during the period of organogenesis
[1] = Preclinical pharmacokinetic studies, intravenous doses; format: in vivo, rats, rabbits, or dogs; details: single repeated intravenous doses up to 2.5 mg/kg
[2] = system: rats, mice, rabbits and dogs; assay: Acute and multidose (28 day) toxicity studies, intranasal and intravenous; format: in vivo; details: single intranasal up to 100 μg/rat, 400 μg/rabbit, 600 μg/dog; repeated up to 50 μg/rat/day, 300 μg/dog/day; intravenous single and repeated up to 2.5 mg/kg
[3] = Preclinical pharmacokinetic studies, intranasal doses; format: in vivo; details: repeated or single escalating intranasal doses up to 100 μg/rat, 400 μg/rabbit, 600 μg/dog
[4] = Ames reverse mutation assay; format: cell-based
[5] = system: women of reproductive age; assay: Intranasal spray 500 nanograms in 14 women of reproductive age, autonomic and physiologic effects vs vehicle; format: in vivo, human; details: 500 nanograms intranasal, compared to the vehicle
[6] = system: women of reproductive age; assay: Intranasal spray 1600 nanograms in women of reproductive age, core body temperature and sympathoadrenergic tone; format: in vivo, human; details: 1600 nanograms intranasal
Description: In another test also in women of reproductive age, intranasal delivery of a nasal spray containing 1600 nanograms of 16α,17α-epoxy-10β-hydroxyestr-4-en-3-one (one administration per nostril by a Valois intranasal spray pump of 50 μL of an aqueous solution of 16 μg/mL 16α,17α-epoxy-10β-hydroxyestr-4-en-3-one with 2% propylene glycol and 2% ethanol) caused a rapid (0.5 to 4 minute latency) decrease in core body temperature of 1±0.23° C. that persisted for 9±2.5 minutes.

hot flashes [7] = details: placebo response rate 37.8%, cited from earlier work
hot flashes [8] = details: cited from earlier work
hot flashes [9] = details: oral and transdermal clonidine; cited from earlier work
hot flashes [10] = details: vs. 29% for placebo; cited from earlier work
hot flashes [11] = details: 27% for placebo, cited from earlier work
hot flashes [12] = details: crossover analysis; cited from earlier work

## C[C@]12CC[C@H]3[C@@H](CCC4=CC(=O)CC[C@@]43O)[C@@H]1C[C@H]1O[C@H]12 [16α,17α-epoxy-10β-hydroxyestr-4-en-3-one, 16α,17α-Epoxy-10β-hydroxyestr-4-en-3-one]
Bone marrow
  mutagenic or clastogenic potential: no evidence of mutagenic or clastogenic potential
Pregnant rabbits
  effects on maternal or litter parameters: no adverse effects on maternal or litter parameters
[1]
  plasma concentrations: generally were dose-proportional and decreased rapidly
[2]
  tolerability (deaths, adverse clinical signs, effects on laboratory or pathology parameters): well tolerated in all species tested
[3]
  systemic exposure: very low systemic exposure
[4]
  mutagenic or clastogenic potential: no evidence of mutagenic or clastogenic potential
[5]
  cardiac frequency: not statistically significant increase
  core body temperature: statistically significant decreases
  electrodermal activity (skin conductance): statistically significant decreases
  electromyographic activity: statistically significant decreases
  respiratory frequency: statistically significant decreases
  vagal tone: statistically significant increases
[6]
  decrease in core body temperature: 1±0.23 °C
  persistence of decrease in core body temperature: 9 ± 2.5 min
  time to reduced tone of the sympathoadrenergic system (physiologic sinus arrhythmia): ≤ 5 minutes

## Fc1ccc([C@@H]2CCNC[C@H]2COc2ccc3c(c2)OCO3)cc1 [Paroxetine]
Hot flashes [7]; 12.5 mg/day
  decrease of hot flash composite scores: 62%
Hot flashes [7]; 25.0 mg/day
  decrease of hot flash composite scores: 65%

## Clc1cccc(Cl)c1N=C1NCCN1 [clonidine, Clonidine]
Hot flashes [8]; oral clonidine
  reduction of hot flash frequency: 46%
Hot flashes [8]; transdermal clonidine
  reduction of hot flash frequency: 80%
Hot flashes [9]
  reductions in hot flash frequency compared with placebo: smaller, but significant reductions

## NCC1(CC(=O)O)CCCCC1 [Gabapentin]
Hot flashes [10]
  reduction of hot flash frequency: 45%

## COc1ccc(C(CN(C)C)C2(O)CCCCC2)cc1 (stereo not drawn) [venlafaxine, Venlafaxine]
Hot flashes [11]; 37.5 mg/day
  reduction of hot flash scores from baseline: 37%
Hot flashes [11]; 75 and 150 mg/day
  reduction of hot flash scores from baseline: 60%

## CNCCC(Oc1ccc(C(F)(F)F)cc1)c1ccccc1 (stereo not drawn) [Fluoxetine]
Hot flashes [12]
  reduction in hot flash frequency over the placebo condition: ~20%
